According to ChEMBL document CHEMBL3885861, “Open TG-GATES”:

Organism: Rattus norvegicus
Experiment: Open TG-GATES - Regimen: Single
Format: toxicity, organism-based, Sprague-Dawley
Parameters: regimen Single, gender Male, age 6 weeks
Conditions: in vivo, po, 1000 mg/kg, route gavage, dose level High; for APTT / Bas / Eos / Fbg / Hb / Ht / Lym / MCH / MCHC / MCV / Mono / Neu / PT / Plat / RBC / Ret / WBC: tissue Blood; for KIDNEY_L / KIDNEY_R / KIDNEY_TOTAL: tissue Kidney; for LIVER: tissue Liver; for A/G / ALP / ALT / AST / BUN / CRE / Ca / Cl / DBIL / GLC / IP / LDH / Na / PL / RALB / TBIL / TC / TG / TP / gamma-GTP: tissue Plasma

NC(N)=Nc1nc(CSCCC(N)=NS(N)(=O)=O)cs1 [FAMOTIDINE]
TERMINAL_BW (3 h): 216.4 g | APTT (3 h): 18.8 s | Bas (3 h): 0% | Eos (3 h): 1% | Fbg (3 h): 209.8 mg/dL | Hb (3 h): 12.9 g/dL | Ht (3 h): 37.1% | Lym (3 h): 80.8% | MCH (3 h): 20.8 pg | MCHC (3 h): 34.8% | MCV (3 h): 59.8 fL | Mono (3 h): 2.8% | Neu (3 h): 14% | PT (3 h): 12.6 s | Plat (3 h): 124.2 x10_4/uL | RBC (3 h): 620.2 x10_4/ul | Ret (3 h): 7.6% | WBC (3 h): 90.8 x10_2/uL | KIDNEY_L (3 h): 1 g | KIDNEY_R (3 h): 1 g | KIDNEY_TOTAL (3 h): 1.9 g | LIVER (3 h): 10.2 g | A/G (3 h): 1.6 | ALP (3 h): 873.2 IU/L | ALT (3 h): 35.6 IU/L | AST (3 h): 66.6 IU/L | BUN (3 h): 9.4 mg/dL | CRE (3 h): 0.4 mg/dL | Ca (3 h): 10.7 mg/dL | Cl (3 h): 103.4 meq/L | DBIL (3 h): 0.07 mg/dL | GLC (3 h): 194.4 mg/dL | IP (3 h): 9 mg/dL | LDH (3 h): 188.8 IU/L | Na (3 h): 140 meq/L | PL (3 h): 149.4 mg/dL | RALB (3 h): 3.3 g/dL | TBIL (3 h): 0.1 mg/dL | TC (3 h): 81.2 mg/dL | TG (3 h): 51.8 mg/dL | TP (3 h): 5.3 g/dL | gamma-GTP (3 h): 1.2 IU/L | TERMINAL_BW (6 h): 212.4 g | APTT (6 h): 20.5 s | Bas (6 h): 0% | Eos (6 h): 1% | Fbg (6 h): 217.8 mg/dL | Hb (6 h): 13.4 g/dL | Ht (6 h): 37.7% | Lym (6 h): 74% | MCH (6 h): 21.7 pg | MCHC (6 h): 35.4% | MCV (6 h): 61.2 fL | Mono (6 h): 2.8% | Neu (6 h): 20.6% | PT (6 h): 12.5 s | Plat (6 h): 112.6 x10_4/uL | RBC (6 h): 617 x10_4/ul | Ret (6 h): 6.9% | WBC (6 h): 73.8 x10_2/uL | KIDNEY_L (6 h): 1 g | KIDNEY_R (6 h): 1 g | KIDNEY_TOTAL (6 h): 1.9 g | LIVER (6 h): 9 g | A/G (6 h): 1.6 | ALP (6 h): 885.4 IU/L | ALT (6 h): 31.8 IU/L | AST (6 h): 65.8 IU/L | BUN (6 h): 8.6 mg/dL | CRE (6 h): 0.4 mg/dL | Ca (6 h): 10.6 mg/dL | Cl (6 h): 104 meq/L | DBIL (6 h): 0.072 mg/dL | GLC (6 h): 192.4 mg/dL | IP (6 h): 8.9 mg/dL | LDH (6 h): 204.2 IU/L | Na (6 h): 141 meq/L | PL (6 h): 140.4 mg/dL | RALB (6 h): 3.4 g/dL | TBIL (6 h): 0.1 mg/dL | TC (6 h): 73 mg/dL | TG (6 h): 50.8 mg/dL | TP (6 h): 5.5 g/dL | gamma-GTP (6 h): 1.4 IU/L | TERMINAL_BW (9 h): 211.3 g | APTT (9 h): 16.7 s | Bas (9 h): 0% | Eos (9 h): 0.8% | Fbg (9 h): 222.2 mg/dL | Hb (9 h): 13.1 g/dL | Ht (9 h): 36.5% | Lym (9 h): 78% | MCH (9 h): 22 pg | MCHC (9 h): 35.9% | MCV (9 h): 61.4 fL | Mono (9 h): 2.4% | Neu (9 h): 17% | PT (9 h): 12.4 s | Plat (9 h): 112.4 x10_4/uL | RBC (9 h): 594.2 x10_4/ul | Ret (9 h): 7.3% | WBC (9 h): 68.5 x10_2/uL | KIDNEY_L (9 h): 1 g | KIDNEY_R (9 h): 1 g | KIDNEY_TOTAL (9 h): 1.9 g | LIVER (9 h): 8.6 g | A/G (9 h): 1.6 | ALP (9 h): 861.4 IU/L | ALT (9 h): 28 IU/L | AST (9 h): 59.8 IU/L | BUN (9 h): 9.8 mg/dL | CRE (9 h): 0.4 mg/dL | Ca (9 h): 10.3 mg/dL | Cl (9 h): 103.8 meq/L | DBIL (9 h): 0.052 mg/dL | GLC (9 h): 205.6 mg/dL | IP (9 h): 9 mg/dL | LDH (9 h): 150 IU/L | Na (9 h): 140 meq/L | PL (9 h): 151.4 mg/dL | RALB (9 h): 3.3 g/dL | TBIL (9 h): 0.1 mg/dL | TC (9 h): 85.2 mg/dL | TG (9 h): 27.2 mg/dL | TP (9 h): 5.4 g/dL | gamma-GTP (9 h): 0.8 IU/L | TERMINAL_BW (24 h): 223.1 g | APTT (24 h): 22.2 s | Bas (24 h): 0% | Eos (24 h): 1% | Fbg (24 h): 218.4 mg/dL | Hb (24 h): 13.3 g/dL | Ht (24 h): 37.1% | Lym (24 h): 77.2% | MCH (24 h): 21.8 pg | MCHC (24 h): 35.9% | MCV (24 h): 60.7 fL | Mono (24 h): 2.8% | Neu (24 h): 17.2% | PT (24 h): 12.3 s | Plat (24 h): 129.4 x10_4/uL | RBC (24 h): 612.2 x10_4/ul | Ret (24 h): 5.8% | WBC (24 h): 77.3 x10_2/uL | KIDNEY_L (24 h): 1 g | KIDNEY_R (24 h): 1 g | KIDNEY_TOTAL (24 h): 2.1 g | LIVER (24 h): 9.6 g | A/G (24 h): 1.6 | ALP (24 h): 1062.2 IU/L | ALT (24 h): 39 IU/L | AST (24 h): 65.4 IU/L | BUN (24 h): 14.4 mg/dL | CRE (24 h): 0.4 mg/dL | Ca (24 h): 10.5 mg/dL | Cl (24 h): 102.6 meq/L | DBIL (24 h): 0.078 mg/dL | GLC (24 h): 199.6 mg/dL | IP (24 h): 8.2 mg/dL | LDH (24 h): 165 IU/L | Na (24 h): 140.2 meq/L | PL (24 h): 137.6 mg/dL | RALB (24 h): 3.3 g/dL | TBIL (24 h): 0.1 mg/dL | TC (24 h): 76.2 mg/dL | TG (24 h): 67.4 mg/dL | TP (24 h): 5.5 g/dL | gamma-GTP (24 h): 1 IU/L
